The target in one test is Histone deacetylase. The test can be described thus: In vitro inhibitory activity against histone deacetylase (HDAC) isolated from HeLa nuclear extract. The class given is protein assay, Homo sapiens.
Test [1] addresses Histone deacetylase (Homo sapiens) (UniProt Q13547+O15379+Q9UBN7+Q92769+Q9UQL6+Q8WUI4+Q9BY41+Q96DB2+P56524+Q9UKV0+Q969S8). The note with it: at 100 µM.
Description: In vitro inhibitory activity against histone deacetylase (HDAC) isolated from HeLa nuclear extract at a concentration of 100 uM

Where only a bound is given, the exact number is not on record here.

For orientation: IC50 means the concentration that gives 50% inhibition. A higher IC50 goes with a need for much substance. For orientation: inhibition means the relative decrease from the control value, in per cent. A high value points to a response far below the control. On Histone deacetylase, `NC(=O)NCCCCCCC(=O)Nc1ccccc1` returned a half-maximal inhibitory concentration (IC50) greater than 100 µM. In test [1], this compound returned an inhibition of 7%.
On Histone deacetylase, `O=C(CCCCCCC(=O)Nc1nccs1)Nc1ccccc1` yielded an IC50 greater than 100 µM. In test [1], this compound showed an inhibition of 9%.
`NNC(=O)NCCCCC(=O)Nc1ccccc1` showed an IC50 on Histone deacetylase greater than 1000 µM. The inhibition in test [1] worked out at 12%.
In the same order, the values of `O=C(CCCCCCNC(=O)C(F)(F)F)Nc1ccccc1` are greater than 100 µM and 3%.
The compound `Nc1ccccc1NC(=O)CCCCCCC(=O)Nc1ccccc1` displayed an IC50 against Histone deacetylase of 120 µM. Further, the inhibition in test [1] amounted to 48%.
`C#CCN(CC#C)CCCCCCC(=O)Nc1ccccc1` yielded an IC50 at Histone deacetylase greater than 100 µM. Moreover, the inhibition in test [1] was found to be 8%.
The matching figures for `O=C(CCCCCCC(=O)Nc1ccccc1)NCCO`: greater than 100 µM and 4%.
The compound `O=C(CCCCCC/C(=N/O)c1ccccn1)Nc1ccccc1` registered an IC50 at Histone deacetylase greater than 100 µM. In test [1], the inhibition worked out at 0%.
The matching figures for `O=C(CBr)NCCCCC(=O)Nc1ccccc1`: 121 µM and 47%.
The matching figures for `O=C(CCCCCCC(=O)OCCO)Nc1ccccc1`: greater than 100 µM and 5%.
In turn, `NNC(=O)NCCCCCCC(=O)Nc1ccccc1` yielded an IC50 against Histone deacetylase of 650 µM. Also, the inhibition in test [1] is 18%.
Turning to `O=C(CCCCCCC(=O)Nc1ccccn1)Nc1ccccc1`, the IC50 on Histone deacetylase is greater than 100 µM. Besides, the inhibition in test [1] was determined as 8%.
The compound `COC(=O)NCCCCCCC(=O)Nc1ccccc1` gave an IC50 against Histone deacetylase greater than 100 µM. In test [1], this compound gave an inhibition of 12%.
Compound `CCOC(=O)NCCCCCCC(=O)Nc1ccccc1` had a half-inhibitory concentration (IC50) on Histone deacetylase greater than 100 µM. The inhibition in test [1] is 19%.
On Histone deacetylase, `C#CCNCCCCCCC(=O)Nc1ccccc1` came in with an IC50 greater than 100 µM. The compound further returned an inhibition in test [1] of 16%.
In turn, `O=C(CCCCCCC(=O)c1ccccn1)Nc1ccccc1` gave an IC50 against Histone deacetylase greater than 100 µM. Further, in test [1], the inhibition worked out at 15%.
As to `NCCNC(=O)CCCCCCC(=O)Nc1ccccc1`, the IC50 on Histone deacetylase was greater than 100 µM. In test [1], this compound yielded an inhibition of 3%.
For the compound `NNC(=O)NCCCCCC(=O)Nc1ccccc1`, the IC50 at Histone deacetylase is 150 µM. Moreover, the inhibition in test [1] worked out at 35%.
`O=C(CBr)NCCCCCC(=O)Nc1ccccc1` had an IC50 against Histone deacetylase of 17 µM. The same compound came in with an inhibition in test [1] of 78%.
Regarding `O=C(CBr)NCCCCCCCC(=O)Nc1ccccc1`, the IC50 against Histone deacetylase is 300 µM. The compound also registered an inhibition in test [1] of 40%.
For the compound `O=C(CBr)NCCCCCCC(=O)Nc1ccccc1`, the IC50 against Histone deacetylase was 14 µM. In test [1], this compound registered an inhibition of 79%.
At Histone deacetylase, `O=C(CCCCCCNC(=O)C(Cl)(Cl)Cl)Nc1ccccc1` yielded an IC50 greater than 100 µM. The compound also gave an inhibition in test [1] of 4%.

(Values after ChEMBL document CHEMBL1144863, “Novel histone deacetylase inhibitors: design, synthesis, enzyme inhibition, and binding mode study of SAHA-based non-hydroxamates” (Bioorg Med Chem Lett, 2003).)
